Test results reported in patent publication US5436261A, “Benzospiroalkene heterocyclic compounds” (Adir et Compagnie, priority 1993, dated 1995).
Structures can show the parent of a compound that is named as a salt.

Tests used:
[1] = system: dog femoral arteries; experiment: In vitro study on dog femoral arteries (contraction); format: cell-based, dog (mongrel); settings: Canis lupus familiaris, dog femoral artery rings; for EC50: 37C, cumulative doses; for Emax: relative to maximum effect of 100 mM KCl, read-out: ARTERY Max
Method: (§1) In vitro study on dog femorai arteries and saphenous veins
(§2) The technique used is based on that described by FOWLER et al., (J. Pharmacol. Exp. Ther., 229, 712-718, 1984). Male or female mongrel dogs weighing approximately 15-25 kg were used as a source of organs. The animals are anesthetized with pentobarbital (30 mg/kg intravenously). The legs are incised and the vessels removed. They are placed in Krebs-Ringer fluid (118 mM NaCl; 25 mM NaHCO3; 10mM glucose; 4.7 mM KCl; 1.25 mM CaCl2; 1.19 mM MgSO4; 1.14 mM KH2 PO4) at room temperature and a stream of carbogen (95% O2, 5% CO2) is bubbled through. The fat is then carefully removed from these vessels, which are thereafter cut into rings 2 mm wide and mounted under a baseline tension of 4 g (femoral arteries) or 1 g (saphenous veins) in tanks thermostated at 37C containing Krebs-Ringer fluid with a stream of carbogen constantly bubbled through. A lower hook constitutes the fixed point, while the upper hook is connected to an isometric force gauge. The variations in tension are digitized, stored on disk and processed by a computer system. After mounting, the organs are left undisturbed for 90 minutes, rinsing being performed every 30 min. After readjustment of the baseline tension, a contraction is induced with a single dose of KCl (100 mM). After stabilization, washing and return to the baseline, a contraction is induced by a single dose of phenylephrine (submaximal concentrations) in order to regularize the following contractions. After washing and return to the baseline, an effect/concentration curve is plotted by adding cumulative doses of agonist (the spacing between the doses is on a semilogarithmic scale). This experiment enables the 50% effective concentration (EC50) to be calculated in the following manner: the tension values are first converted to percentages relative to the maximum effect produced by 100 mM KCl. This EC50 is determined by nonlinear regression by the SIMPLEX method (M. S. CACECI, Byte, 340-362, 1984), calculated according to the L. MICHAELIS and M. L. MENTEN model of the law of mass action (Blochem. Zeitschrift, 49, 333-369, 1913). E=(Emax*C^n)(EC^n +C^n) with E=effects; Emax=maximum effect; C=concentration; EC=EC50; n=HILL's number

[2] = system: dog saphenous veins; experiment: In vitro study on dog saphenous veins (contraction); format: cell-based, dog (mongrel); settings: Canis lupus familiaris, dog saphenous vein rings; for EC50: 37C, cumulative doses; for Emax: relative to maximum effect of 100 mM KCl, read-out: VEIN Max
Method: as §1, §2

[3] = system: pithed rats; experiment: In vivo study in pithed rats, blood pressure; set-up: species or system rat (Sprague-Dawley); settings: Rattus norvegicus, iv, tertatolol pretreated, without prazosin or yohimbine, read-out: C20 Control (concentration that increases the pressure by 20 mm Hg)
From the text: (§3) In vivo study in PITBED RATS
(§4) Male Sprague-Dawley rats (300-400 g) are anesthetized with ether. The trachea is canulated, the spinal cord is destroyed by means of a steel rod and the animal is immediately placed under artificial respiration. The vagal nerves are sectioned. The carotid arteries are ligated; a catheter is placed in one and is used to record blood pressure. A further three catheters are placed in the jugular veins and the veins of the penis and are used for injections. The animals'temperature is maintained at 36° C. The animal is pretreated by an injection of tertatolol ([…]). The animal is also pretreated 10 minutes later with prazosin ([…]) or yohimbine (1 mg/kg) when it is desired to determine the alpha1 --or alpha2 -adrenergic properties of the product. Ten minutes later, increasing cumulative doses of the product are injected every 20 seconds. Variations in blood pressure are detected using a Statham P23XL pressure cell and are recorded. The pressure values are expressed in mmHg. This experiment enables the concentration that increases the pressure by 20 mm Hg (C2.sbsb.0) to be calculated by non-linear regression according to the Michaelis and Menten model of the law of mass action, as described above. The maximum effect obtained is then converted to a percentage relative to the maximum effect produced by phenylephrine. The alpha1 - or alpha2 -adrenergic components of the product are assessed by means of the ratio of the C2.sbsb.0 values obtained in the presence of prazosin or yohimbine to the values obtained in the absence of these antagonists. In pithed rats, the products of the invention produce prazosin- and yohimbine-sensitive hypertension.

[4] = system: alpha2-adrenergic; experiment: In vivo study in pithed rats, pretreatment with yohimbine (alpha2-adrenergic component); set-up: species or system rat (Sprague-Dawley); settings: yohimbine (1 mg/kg) pretreatment
From the text: as §3, §4

[5] = system: carotid blood flow; experiment: In vivo study of carotid blood flow in anesthetized dogs; set-up: species or system dog; dose or concentration left out as unconfirmed; settings: i.v., n-6
Method: In vivo study of carotid blood flow in anesthetized dogs
Dogs (12-18kg) are anesthetized with pentobarbital (30mg/kg i.v.). Anesthesia is then maintained by a perfusion of 0.8 ml/h of 6% pentobarbital. The animals are placed under assisted respiration and their temperature is maintained at 37C (Harvard thermostated blanket). Blood pressure and heart rate are measured by means of a Millar probe in the fernoral artery or brachial artery, via a transducer and a Gould biotach. The blood flow in the carotid arteries is recorded by means of a Gould SP2202 electromagnetic flow meter.

SMILES	EC50 [1] [nM]	EC50 [2] [nM]	Emax [1] [%]	Emax [2] [%]	ED (20 mm Hg) [3] [mg/kg]	Ratio C20 treated/C20 control, Yohimbine [4]	fall in carotid blood flow [5] [%]
C1=NC2(CCc3ccccc3C2)CN1 (centres unmarked) [Example 1, Spiro[(1,3-diaza-1-cyclopentene)-5,2'-(1',2',3',4'-tetrahydronaphthalene)]benzenesulfonate]	5900	1300	19	98	0.004	4.7	
COc1cc2c(cc1O)CCC1(CNC=N1)C2 (centres unmarked) [Example 3, Spiro[(1,3-diaza-1-cyciopentene)-5,2'-(6'-hydroxy-7'-methoxy-1',2',3',4'-tetrahydronaphthalene)]fumarate]					0.0009	2.9	
CC(C)Oc1ccc2c(c1)CCC1(CNC=N1)C2 (centres unmarked) [Example 5, Spiro[(1,3-diaza-1-cyclopentene)-5,2'-(6'-isopropyloxy-1',2',3',440-tetrahydronaphthalene)]fumarate]					0.068	66	
COc1ccc2c(c1OC)CCC1(CNC=N1)C2 (centres unmarked) [Example 7, Spiro[(1,3-diaza-1-cyclopentene)-5,2'-(5',6'-dimethoxy-1',2',3',4'-tetrahydronaphthalene)]fumarate]					0.137	2.4	

More lines, main results first:

EC50 [1] [nM]	EC50 [2] [nM]	SMILES	Emax [1] [%]	Emax [2] [%]	ED (20 mm Hg) [3] [mg/kg]	Ratio C20 treated/C20 control, Yohimbine [4]	fall in carotid blood flow [5] [%]
13000	2100	Cc1ccc2c(c1)CCC1(CNC=N1)C2 (centres unmarked) [Example 8, Spiro[(1,3-diaza-1-cyclopentene)-5,2'-(6'-methyl-1',2',3',4'-tetrahydronaphthalene)]fumarate]	12	44			
800	3900	COc1cc(C)cc2c1CCC1(CNC=N1)C2 (centres unmarked) [Example 9, Spiro[(1,3-diaza-1-cyciopentene)-5,2'-(5'-methoxy-7'-methyl-1',2',3',4'-tetrahydronaphthalene) ]fumarate]	60	81			
24000	1900	Clc1cc(Cl)c2c(c1)CC1(CC2)CNC=N1 (centres unmarked) [Example 17, Spiro[(1,3-diaza-1-cyclopentene)-5,2'-(5',7'-dichloro-1',2',3',4'-tetrahydronaphthalene)]fumarate]	10	44			
70000	160	Cc1ccc2c(c1)CC1(CC2)CNC=N1 (centres unmarked) [Example 24, Spiro[(1,3-diaza-1-cyclopentene)-5,2'-(7'-methyl-1',2',3',4'-tetrahydronaphthalene)]fumarate]	8	57	0.03	1.5	
500	1600	C1=NC2(CN1)Cc1cccc3cccc(c13)C2 [Example 31, Spiro[(1,3-diaza-1-cyclopentene)-5,2'-(2,3'-dihydrophenalene)] 1/2 fumarate]	10	44			
15000	1860	Cc1ccc2c(c1)C[C@@]1(CC2)CNC=N1 [Example 46, (S)-Spiro[(1,3-diaza-1-cyclopentene)-5,2'-(7'-methyl-1',2',3',4'-tetrahydronaphthalene)]fumarate]	36	48	0.0068	3.4	62±4
